Data taken from patent US20190315814A1, “LANTIBIOTIC VARIANTS AND USES THEREOF” (priority 2016, published 2019).
≈ marks a conversion by molar mass, not a printed value. Where two headings read alike, the source gives them in different places. Marks after values point to notes of the source that are not given here.

Columns and labels:
[1] = system: Streptococcus pneumoniae (ATCC 700675); assay: MIC assay against Streptococcus pneumoniae; format: cell-based; settings: ATCC700675, read-out: MIC S. pneumonia
[2] = system: VRE Enterococcus faecalis
[3] = system: VRE Enterococcus faecalis; assay: organism not typed
[4] = system: VRE Enterococcus faecium; assay: organism not typed; settings: read-out: MIC VRE ATCC 700221, strain ATCC 700221
[5] = system: Eggerthella lenta (ATCC 27337); assay: microbe, parasite or virus in culture; settings: ATCC27337, read-out: MIC E. lenta
[6] = system: Pseudomonas aerigunosa; assay: MIC against Gram negative P. aeruginosa; format: cell-based, Pseudomonas aeruginosa
Procedure: A minimum inhibitory concentration (MIC) assessment against Pseudomonas aerigunosa (a Gram negative bacterium) was performed for single site variants in the broth dilution assay as described by the CLSI (CLSI document M07-A8). Samples and Ofloxacin control were dissolved and serially diluted in 100% DMSO and 4 μL was added per well to 96-well plate with 196 μL of Cation Adjusted Mueller Hinton II Broth seeded with P. aeruginosa. […] The assay plates were loosely wrapped in a plastic bag and incubated 20-24 hours at 36° C. (aerobic conditions) and then visually examined and scored positive (+) for inhibition of growth or turbidity or negative (−) for no effect upon growth or turbidity.

[7] = in vitro; settings: simulated gi fluid
Procedure: Assay incubation conditions included […] simulated gastric fluid (SGF, USP 39 Test Solution; 2 g/L NaCl, 7 mL/L glacial HCl, pH 1.4) containing 1.75 mg/mL Pepsin (3200-4500 U/mg) mixed with 7.5 μL of 10 mg/mL variant (or positive control, NH2-Met-Arg-Phe-Ala-OH, MRFA, CAS#67368-29-0) for a final concentration of 300 μg/ml variant in a microfuge tube. Samples were incubated at 37° C. and analyzed using HPLC or LC-MS for loss of substrate. The percent remaining, elimination rate constant (Ke), and in vitro protein half-lives were calculated. A control of SGF without enzyme was also run and analyzed in the same manner for each variant.

[8] = system: Clostridium difficile UNT103-1; assay: Non-cannulated Syrian hamster C. difficile infection model, oral gavage; format: in vivo, Golden Syrian hamsters
Procedure: (§1) Following the recovery phase, male Golden Syrian hamsters were inoculated with Clostridium difficile UNT103-1 (VA11, non epidemic (cdtB-, REA group J) Curtis Donskey, Cleveland VA Hospital, Cleveland, Ohio). On Day 1, at 24 hrs after infection, all animals received a single subcutaneous injection of clindamycin (10 mg/kg). Test article formulations were administered three times per day (TID), starting on Day 2 at 18 hours after Clindamycin injection, for 5 consecutive days (Days 2 through 6), and followed until Day 22 to assess recurrence. Vancomycin (positive control) was administered once a day at 20 mg/kg on Days 2 through 6. Cecal spore counts and Toxins A and B were determined as described above

[9] = system: Clostridium difficile UNT103-1; assay: Second non-cannulated Syrian hamster C. difficile infection model, oral gavage dose range-finding; format: in vivo, Golden Syrian hamsters
Procedure: as §1, with “formulated at 3 to 5 different doses” for “formulations”, “above.” for “above”

[10] = simulated gi fluid
[11] = system: VRE Enterococcus faecium
[12] = system: Clostridium scindens (ATCC 35704)
[13] = system: Lactobacillus acidophilus (CCUG 4356)
[14] = system: Peptostreptococcus anaerobius (ATCC 27337)
[15] = system: Eggerthella lenta (ATCC 27337)
[16] = system: Heliobacter pylori
[17] = system: Staphylococcus aureus; assay: MIC assay against Staphylococcus aureus; format: cell-based
[18] = 35 mg/Kg oral gavage TID, limit of detection 0.8

Work on `CC1(C)S[C@@H]2[C@H](NC(=O)[C@H](N)c3ccccc3)C(=O)N2[C@H]1C(=O)O` [Ampicillin] yielded an MIC [1] of 1 µg/mL (≈ 2.86 µM).

For `CC(=O)NC[C@H]1CN(c2ccc(N3CCOCC3)c(F)c2)C(=O)O1` [Linezoid, Linezolid], the “MIC VRE ATCC 51575” value ([2]; strain ATCC 51575, multi-site variants) was 2 µg/mL (≈ 5.93 µM), the MIC ([3]; read-out: MIC VRE ATCC 51299) was 2 µg/mL (≈ 5.93 µM) and the MIC ([3]; read-out: MIC VRE ATCC 51575) was 2 µg/mL (≈ 5.93 µM). The MIC ([3]; read-out: MIC VRE CCUG 47775) was 2 µg/mL (≈ 5.93 µM), the MIC ([4]; multi-site variants) was 4 µg/mL (≈ 11.9 µM) and the MIC ([4]; single site variants) was 2 µg/mL (≈ 5.93 µM). For the same compound, the MIC [5] was 1 µg/mL (≈ 2.96 µM).

`CC1COc2c(N3CCN(C)CC3)c(F)cc3c(=O)c(C(=O)O)cn1c23` (stereo not drawn) [Ofloxacin] gave an MIC [6] of 1 µg/mL (≈ 2.77 µM).

In the case of `C=C1NC(=O)[C@H](Cc2c[nH]c3ccccc23)NC(=O)[C@H](NC(=O)[C@H](CCCCN)NC(=O)[C@@H](N)C(C)C)CSC[C@@H](C(=O)N[C@H]2C(=O)N3CCC[C@H]3C(=O)NCC(=O)N[C@H](C(=O)N[C@@H](C)C(=O)N[C@@H](CC(N)=O)C(=O)N/C(=C\C)C(=O)NCC(=O)N[C@@H]3CSC[C@@H]4NC(=O)[C@H](Cc5ccc(O)cc5)NC(=O)[C@@H](CS/C=C\NC4=O)NC(=O)[C@H](CC(N)=O)NC(=O)[C@H](Cc4ccccc4)NC3=O)CS[C@H]2C)NC(=O)[C@H](CC(C)C)NC1=O` [F1V R13N], the half-life [7] is reported as greater than 24 h, the “Efficacy compared with Vancomycin-treated animals” value ([8]; end of the study at Day 22, oral gavage, in words) is reported as “equal or superior efficacy” and the “Percent Survival at Day-22” value ([8]; oral gavage TID Days 2-6, vancomycin 20 mg/kg once a day) is reported as 100%. The “Toxin A level at Day-22” value ([8]; oral gavage, first value of A/B cell, limit of detection 0.8) was 0.8/0.8** ng/mL, the “Mean LOG10 CFU/mL of feces homogenates (cecal spore counts) at Day-22” value (from here on “Mean LOG10 CFU/mL of feces homogenates”) ([8]; oral gavage, limit of detection 2.40) was 2.4* LOG10 CFU/mL and the “Toxin B level at Day-22” value ([8]; oral gavage, second value of A/B cell, limit of detection 0.8) was 0.8/0.8** ng/mL. The “Mean LOG10 CFU/mL of feces homogenates” value ([9]; 2 mg/Kg oral gavage TID) was 6.13 LOG10 CFU/mL, the “Toxin A level at Day-22” value ([9]; 2 mg/Kg oral gavage TID) was 578.5 ng/mL and the “Toxin B level at Day-22” value ([9]; 2 mg/Kg oral gavage TID) was 462.7 ng/mL. The “Percent Survival at Day-22” value ([9]; 2 mg/Kg oral gavage TID Days 2-6) was 0%, the “Mean LOG10 CFU/mL of feces homogenates” value ([9]; 6 mg/Kg oral gavage TID) was 4.27 LOG10 CFU/mL and the “Toxin A level at Day-22” value ([9]; 6 mg/Kg oral gavage TID) was 266.2 ng/mL. The “Toxin B level at Day-22” value ([9]; 6 mg/Kg oral gavage TID) was 238.1 ng/mL, the “Percent Survival at Day-22” value ([9]; 6 mg/Kg oral gavage TID Days 2-6) was 50% and the “Mean LOG10 CFU/mL of feces homogenates” value ([9]; 20 mg/Kg oral gavage TID) was 3.88 LOG10 CFU/mL. The “Toxin A level at Day-22” value ([9]; 20 mg/Kg oral gavage TID) was 74.2 ng/mL, the “Toxin B level at Day-22” value ([9]; 20 mg/Kg oral gavage TID) was 57.8 ng/mL and the “Percent Survival at Day-22” value ([9]; 20 mg/Kg oral gavage TID Days 2-6) was 66%. For the same compound, the “Percent Survival at Day-22” value ([9]; 35 mg/Kg oral gavage TID Days 2-6) was 100%, the “Toxin A level at Day-22” value [9, 18] was 0.8/0.8** ng/mL and the “Toxin B level at Day-22” value [9, 18] was 0.8/0.8** ng/mL. The “Mean LOG10 CFU/mL of feces homogenates” value ([9]; 35 mg/Kg oral gavage TID, limit of detection 2.40) was 2.40* LOG10 CFU/mL, the “Mean LOG10 CFU/mL of feces homogenates” value ([9]; 60 mg/Kg oral gavage TID) was 2.51 LOG10 CFU/mL and the “Toxin A level at Day-22” value ([9]; 60 mg/Kg oral gavage TID) was 7.3 ng/mL. For the same compound, the “Toxin B level at Day-22” value ([9]; 60 mg/Kg oral gavage TID) was 5.5 ng/mL, the “Percent Survival at Day-22” value ([9]; 60 mg/Kg oral gavage TID Days 2-6) was 83% and the “Efficacy compared with Vancomycin-treated animals at the same dose” value ([9]; end of the study at Day 21, ascending dose regimen, in words) was “superior efficacy”. For the same compound, the half-life ([10]; FaSSIF + 1% pancreatin + 3 μg/ml trypsin + 3 μg/ml chymotrypsin half-life) was greater than 12 h, the half-life ([10]; FaSSIF only half-life) was greater than 12 h and the “MIC VRE ATCC 51575” value ([2]; VRE) was 32 µg/mL (≈ 14.7 µM). The “MIC VRE CCUG 47775” value ([2]; VRE) was 32 µg/mL (≈ 14.7 µM), the “MIC VRE ATCC 700221” value [11] was 16 µg/mL (≈ 7.36 µM) and the “MIC C. scindens” value [12] was 4 µg/mL (≈ 1.84 µM). For the same compound, the “MIC L. acidophilus” value [13] was 0.5 µg/mL (≈ 0.23 µM), the “MIC P. anaerobius” value [14] was 0.25 µg/mL (≈ 0.115 µM) and the “MIC E. lenta” value [15] was 0.5 µg/mL (≈ 0.23 µM). For the same compound, the “MIC to H. Pylori without EDTA” value [16] was 8 µg/mL (≈ 3.68 µM) and the “MIC to H. Pylori with 0.05M EDTA” value ([16]; with 0.05M EDTA) was 8 µg/mL.

In the case of Gentamicin, the “MIC S. aureus ATCC 19636” value ([17]; strain ATCC 19636) is reported as 0.125 µg/mL, the “MIC S. aureus ATCC 29213” value ([17]; strain ATCC 29213) is reported as 0.25 µg/mL and the “MIC SS. aureus ATCC 33591” value ([17]; strain ATCC 33591) is reported as 1 µg/mL. The “MIC S. aureus BAA-1717” value ([17]; strain BAA-1717) was 0.25 µg/mL.
